Legend:
Assay type in all cases: in vivo
[1] = tested on: Dysaphis plantaginea adults; experiment: Lab trial in Petri dishes, leaf disc dipped in suspension; conditions: 0.14 kg/ha
Experimental: Composition used for insect control: Suspension of Beauveria bassiana CNCM I-2961 spores prepared in Tween 80. Total CFU count = 1.2 x 10^8 CFU/ml Trial method: Lab trial in Petri dishes, 10 replicates, 5 adults/replicate Leaf disc dipped in prepared suspension of treatment, let dried and set up on agar agar Incubation in climatic room at +21°C, dead adults removed and incubated for sporulation on cadaver: assessment at 17 DAA Assessment of mortality percentage of Dysaphis plantaginea adults at 8 DAA, 10 DAA DAA = Days after application Comparative control: Flonicamid Table 1: Efficacy of Beauveria bassiana CNCM I-2961 on Dysaphis plantaginea adults

[2] = tested on: Empoasca vitis L2/L3 larvae; experiment: Lab trial in Petri dishes, leaf dipped in suspension; conditions: 75 ml/L
Experimental: Composition used for insect control: Suspension of Beauveria bassiana CNCM I-2961 spores prepared in Tween 80. Total CFU count = 1.0 x 10^8 CFU/ml Trial method: Lab trial in Petri dishes, 10 replicates, 5 L2&L3 larvae /replicate Leaf dipped in prepared suspension of treatment, let dried and set up on agar agar Incubation in climatic room at +20°C, dead adults removed and incubated for sporulation on cadaver: assessment at 18 DAA Assessment of mortality percentage of Empoasca vitis L2/L3 larvae at 7 DAA, 10DAA. Comparative control: Lambda cyhalothrin Table 5: Efficacy of Beauveria bassiana CNCM I-2961 on Empoasca vitis L2/L3 larvae

Bactrocera oleae adults = experiment: Lab trial in plastic containers, flies dipped in test solution; conditions: 75 ml/L
Experimental: Composition used for insect control: Suspension of Beauveria bassiana CNCM I-2960 spores prepared in Tween 80. Total CFU count = 9.5 x 10^7 CFU/ml Trial method: Lab trial in plastic containers, 5 replicates, 10 adults /replicate Flies dipped in test solution Incubation in climatic room at +25°C Assessment of mortality percentage of Bactrocera oleae adults at 10DAT. DAT = Days after Treatment Comparative control: Lambda-cyhalothrin Table 7: Efficacy of Beauveria bassiana CNCM I-2960 on Bactrocera oleae adults

Empoasca vitis adults = experiment: Lab trial in Petri dishes, leaf dipped in suspension; conditions: 75 ml/L
Experimental: Composition used for insect control: Suspension of Beauveria bassiana CNCM I-2960 spores prepared in Tween 80. Total CFU count = 8.2 x 10^7 CFU/ml Suspension of Beauveria bassiana CNCM I-2961 spores prepared in Tween 80. Total CFU count = 1.1 x 10^8 CFU/ml Trial method: Lab trial in Petri dishes, 5 replicates, 10 nymphs/replicate Leaf dipped in prepared suspension of treatment, let dried and set up on agar agar Incubation in climatic room at +20 C, dead adults removed and incubated for sporulation on cadaver: assessment at 15 DAA Assessment of mortality percentage of Empoasca vitis adults at 7 DAA, 11DAA. Comparative control: Lambda cyhalothrin Table 4: Efficacy of Beauveria bassiana CNCM I-2961 and Beauveria bassiana CNCM I-2960 on Empoasca vitis adults

Halyomorpha halys eggs = experiment: Lab trial in Petri dishes, suspension sprayed on eggs; conditions: 0.5 ml/L
Experimental: Composition used for insect control: Suspension of Beauveria bassiana CNCM I-2960 spores prepared in Tween 80. Total CFU count = 1 x 10^6 CFU/ml, 1 x 10^7 CFU/ml and 1 x 10^8 CFU/ml Suspension of Beauveria bassiana CNCM I-2961 spores prepared in Tween 80. Total CFU count = 1 x 10^6 CFU/ml, 1 x 10^7 CFU/ml and 1 x 10^8 CFU/ml Trial method: Lab trial in Petri dishes, 5 replicates, 10 nymphs/replicate Suspension sprayed on eggs with equivalent volume of 1000 L/ha Incubation in climatic room at +25°C Assessment of mortality percentage of Halyomorpha halys Nymphs from treated eggs at 6 DAH, 9DAH, 13 DAH and 17 DAH. DAH = Days after hatching Comparative control: Acetamiprid Table 3: Efficacy of Beauveria bassiana CNCM-2961 and Beauveria bassiana CNCM I-2960 on Halyomorpha halys nymphs from treated eggs

Halyomorpha halys Nymphs = experiment: Lab trial in Petri dishes, suspension applied on nymphs + spray on beans; conditions: 0.5 ml/L
Experimental: Composition used for insect control: Suspension of Beauveria bassiana CNCM I-2960 spores prepared in Tween 80. Total CFU count = 1 x 10^8 CFU/ml Trial method: Lab trial in Petri dishes, 10 replicates, 5 nymphs/replicate Suspension applied on nymphs + spray on beans Incubation in climatic room at +25°C Assessment of mortality percentage of Halyomorpha halys Nymphs at 10 DAA Comparative control: Acetamiprid Table 2: Efficacy of Beauveria bassiana CNCM I-2960 on Halyomorpha halys Nymphs

SMILES: N#CCNC(=O)c1cnccc1C(F)(F)F [Flonicamid]
- Mortality percentage of Dysaphis plantaginea adults at 8 DAA ([1]; 8 DAA): 100%
- Mortality percentage of Dysaphis plantaginea adults at 10 DAA ([1]; 10 DAA): 100%

SMILES: CC1(C)[C@H](C(=O)O[C@H](C#N)c2cccc(Oc3ccccc3)c2)[C@@H]1/C=C(\Cl)C(F)(F)F (racemic) [Lambda cyhalothrin]
- Mortality percentage of Empoasca vitis larvae at 7 DAA ([2]; 7 DAA): 65%
- Mortality percentage of Empoasca vitis larvae at 10 DAA ([2]; 10 DAA): 91%
- Mortality percentage of Bactrocera oleae adults at 10 DAA (Bactrocera oleae adults): 100%
- Mortality percentage of Empoasca vitis adults at 7 DAA (Empoasca vitis adults; 7 DAA): 83%
- Mortality percentage of Empoasca vitis adults at 11 DAA (Empoasca vitis adults; 11 DAA): 100%

SMILES: C/C(=N\C#N)N(C)Cc1ccc(Cl)nc1 [Acetamiprid]
- Mortality percentage of Halyomorpha halys nymphs from treated eggs at 6 DAH (Halyomorpha halys eggs; 6 DAH): 0%
- Mortality percentage of Halyomorpha halys nymphs from treated eggs at 9 DAH (Halyomorpha halys eggs; 9 DAH): 7%
- Mortality percentage of Halyomorpha halys nymphs from treated eggs at 13 DAH (Halyomorpha halys eggs; 13 DAH): 12%
- Mortality percentage of Halyomorpha halys nymphs from treated eggs at 17 DAH (Halyomorpha halys eggs; 17 DAH): 22%
- Mortality percentage of Halyomorpha halys Nymphs at 10 DAA (Halyomorpha halys Nymphs): 100%

From EP4656049A1, “A METHOD OF CONTROLLING INSECT PESTS” (UPL Mauritius Limited, priority 2024, dated 2025)
